Results published in patent US20260325540A1 (priority 2023, published 2026).

Target: HCoV-229E 3CL protease (Human coronavirus 229E, UniProt P0C6U2)
Assay: FRET based protease assay, HCoV-229E 3CL
Type: biochemical
Conditions: 229E IC50, 6 nM H229E-CoV Chis-3CLpro, 6 μM peptide 1 substrate, 25° C., 1.5 hrs, pH 7.5

Chain of HCoV-229E 3CL protease (P0C6U2 2966-3267): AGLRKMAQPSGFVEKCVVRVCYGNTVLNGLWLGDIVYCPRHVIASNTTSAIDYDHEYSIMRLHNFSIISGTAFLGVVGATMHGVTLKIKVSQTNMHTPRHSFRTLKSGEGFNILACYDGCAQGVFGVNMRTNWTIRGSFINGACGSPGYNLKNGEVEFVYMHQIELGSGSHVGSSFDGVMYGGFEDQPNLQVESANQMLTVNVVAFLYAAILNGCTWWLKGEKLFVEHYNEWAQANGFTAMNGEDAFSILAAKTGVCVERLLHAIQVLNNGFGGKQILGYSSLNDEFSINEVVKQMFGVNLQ

Compound	IC50 [nM]
CC1(C(=O)N[C@H]2CCCC[C@H]3CNC(=O)[C@H]3C[C@@H](C#N)NC(=O)[C@@H]3[C@@H]4[C@H](CN3C2=O)C4(C)C)COC1 [Example 123]	< 100
CC1(C)[C@@H]2[C@H]3C(=O)N[C@H](C#N)C[C@@H]4C(=O)NCC[C@@H]4CCCC[C@H](NC(=O)OC4CCCC4)C(=O)N3C[C@@H]21 [Example 124]	< 100
CC(C)(C)OC(=O)N[C@H]1CCC[C@H]2CNC(=O)[C@H]2C[C@@H](C#N)NC(=O)[C@@H]2[C@@H]3[C@H](CN2C(=O)C1)C3(C)C [Example 125]	100 to 1000
CC(C)(C)OC(=O)N[C@@]1(C)CCCCC[C@H]2CNC(=O)[C@H]2C[C@@H](C#N)NC(=O)[C@@H]2[C@@H]3[C@H](CN2C1=O)C3(C)C [Example 126]	> 20000
CC(C)(C)OC(=O)N[C@H]1CCCC[C@H]2CNC(=O)[C@H]2C[C@@H](C#N)NC(=O)[C@@H]2[C@H]3CC[C@H](C3)N2C1=O [Example 127]	1000 to 20000
CC(C)(C)OC(=O)N[C@@H]1CCCC[C@H]2CNC(=O)[C@H]2C[C@@H](C#N)NC(=O)[C@@H]2[C@@H]3[C@H](CN2C1=O)C3(C)C [Example 128]	> 20000
CC1(C)[C@@H]2[C@H]3C(=O)N[C@H](C#N)C[C@@H]4C(=O)NCC[C@@H]4CCCC[C@H](NC(=O)c4ccc(F)cc4F)C(=O)N3C[C@@H]21 [Example 129]	< 100
CC1(C)C[C@H]2C(=O)N[C@H](C#N)C[C@@H]3C(=O)NC[C@@H]3CCCC[C@H](NC(=O)OC(C)(C)C)C(=O)N2C1 [Example 130]	< 100
CC(C)(C)OC(=O)N[C@H]1CCCC[C@H]2CNC(=O)[C@H]2C[C@@H](C#N)NC(=O)[C@@H]2CC(F)(F)CN2C1=O [Example 131]	1000 to 20000
CC(C)(C)OC(=O)N[C@H]1CCCC[C@H]2CNC(=O)[C@H]2C[C@@H](C#N)NC(=O)[C@@H]2CC3(CCN2C1=O)CC3 [Example 132]	< 100
CC1(C)[C@@H]2[C@H]3C(=O)N[C@H](C#N)C[C@@H]4C(=O)NC[C@@H]4CCCC[C@H](NC(=O)c4cc(Cl)ccc4Cl)C(=O)N3C[C@@H]21 [Example 133]	< 100
CC1(C)[C@@H]2[C@H]3C(=O)N[C@H](C#N)C[C@@H]4C(=O)NC[C@@H]4CCCC[C@H](NC(=O)c4cccc(Cl)c4Cl)C(=O)N3C[C@@H]21 [Example 134]	< 100
CC1(C)[C@@H]2[C@H]3C(=O)N[C@H](C#N)C[C@@H]4C(=O)NCC[C@@H]4CCCC[C@H](NC(=O)C45CC(C(F)(F)F)(C4)C5)C(=O)N3C[C@@H]21 [Example 135]	100 to 1000
CC(C)(C)C[C@@H]1NC(=O)[C@@H](NC(=O)c2ccc(Cl)c(Cl)c2)CCCC[C@H]2CNC(=O)[C@H]2C[C@@H](C#N)NC1=O [Example 136]	< 100
CC(C)(C)OC(=O)N[C@H]1CCCC[C@H]2CNC(=O)[C@H]2C[C@@H](C#N)NC(=O)[C@H](CC2CCCC2)NC1=O [Example 137]	< 100
CC(C)(F)C[C@@H]1NC(=O)[C@@H](NC(=O)OC(C)(C)C)CCCC[C@H]2CNC(=O)[C@H]2C[C@@H](C#N)NC1=O [Example 138]	100 to 1000
CC1(C)[C@@H]2[C@H]3C(=O)N[C@H](C#N)C[C@@H]4C(=O)NC[C@@H]4CCCC[C@H](NC(=O)c4ccc(F)cc4C(F)(F)F)C(=O)N3C[C@@H]21 [Example 139]	< 100
CN1C[C@@H]2CCCC[C@H](NC(=O)OC(C)(C)C)C(=O)N3C[C@H]4[C@@H]([C@H]3C(=O)N[C@H](C#N)C[C@@H]2C1=O)C4(C)C [Example 140]	1000 to 20000
CC1(C)[C@@H]2[C@H]3C(=O)N[C@H](C#N)C[C@@H]4C(=O)NC[C@@H]4CCCC[C@H](NC(=O)C(C)(C)C(F)(F)F)C(=O)N3C[C@@H]21 [Example 141]	< 100

Compound	IC50 [nM]
CC(C)(C)C[C@@H]1NC(=O)[C@@H](NC(=O)c2ccc(F)c(C(F)(F)F)c2)CCCC[C@H]2CNC(=O)[C@H]2C[C@@H](C#N)NC1=O [Example 142]	100 to 1000
CC(C)(C)OC(=O)N[C@H]1CCCC[C@H]2CNC(=O)[C@H]2C[C@@H](C#N)NC(=O)[C@@H]2CCCCCN2C1=O [Example 143]	100 to 1000
CCO[C@@H]1C[C@H]2C(=O)N[C@H](C#N)C[C@@H]3C(=O)NC[C@@H]3CCCC[C@H](NC(=O)OC(C)(C)C)C(=O)N2C1 [Example 144]	100 to 1000
CCC(C)(C)[C@@H]1NC(=O)[C@@H](NC(=O)OC(C)(C)C)CCCC[C@H]2CNC(=O)[C@H]2C[C@@H](C#N)NC1=O [Example 145]	1000 to 20000
CC(C)(C)OC(=O)N[C@H]1CCCC[C@H]2CNC(=O)[C@H]2C[C@@H](C#N)NC(=O)[C@H]2N(CC(F)(F)C2(C)C)C1=O [Example 146]	100 to 1000
CO[C@@H]1C[C@H]2C(=O)N[C@H](C#N)C[C@@H]3C(=O)NC[C@@H]3CCCC[C@H](NC(=O)OC(C)(C)C)C(=O)N2C1 [Example 147]	100 to 1000
CC1(C)[C@@H]2[C@H]3C(=O)N[C@H](C#N)C[C@@H]4C(=O)NC[C@@H]4CCCC[C@H](NC(=O)C45CCC(C4)C5)C(=O)N3C[C@@H]21 [Example 148]	< 100
CC(C)(C)C[C@@H]1NC(=O)[C@@H](NC(=O)C2(C(F)(F)F)CC2)CCCC[C@H]2CNC(=O)[C@H]2C[C@@H](C#N)NC1=O [Example 149]	< 100
N#C[C@@H]1C[C@@H]2C(=O)NC[C@@H]2CCCC[C@H](NC(=O)C2(C(F)(F)F)CC2)C(=O)N2C[C@@H]3CCC[C@@H]3[C@H]2C(=O)N1 [Example 150]	< 100
N#C[C@@H]1C[C@@H]2C(=O)NC[C@@H]2CCCC[C@H](NC(=O)C2(C(F)(F)F)CC2)C(=O)N2CCC3(CC3)C[C@H]2C(=O)N1 [Example 151]	< 100
CC1(C)[C@@H]2[C@H]3C(=O)N[C@H](C#N)C[C@@H]4C(=O)NC[C@@H]4CCCC[C@H](NC(=O)OC4(C(F)(F)F)CCC4)C(=O)N3C[C@@H]21 [Example 152]	< 100
CC1(C)[C@@H]2[C@H]3C(=O)N[C@H](C#N)C[C@@H]4C(=O)NC[C@@H]4CCCC[C@H](NC(=O)c4cc(C(F)(F)F)on4)C(=O)N3C[C@@H]21 [Example 153]	< 100
CC1(C)[C@@H]2[C@H]3C(=O)N[C@H](C#N)C[C@@H]4C(=O)NC[C@@H]4CCCC[C@H](NS(=O)(=O)c4ccccc4)C(=O)N3C[C@@H]21 [Example 154]	< 100
N#C[C@@H]1C[C@@H]2C(=O)NC[C@@H]2CCCC[C@H](NS(=O)(=O)c2ccc(F)cc2F)C(=O)N2C[C@@H]3CCC[C@@H]3[C@H]2C(=O)N1 [Example 155]	< 100
CC1(C)[C@@H]2[C@H]3C(=O)N[C@H](C#N)C[C@@H]4C(=O)NC[C@@H]4CCCC[C@H](NS(=O)(=O)C4CC4)C(=O)N3C[C@@H]21 [Example 156]	< 100
CC1(C)[C@@H]2[C@H]3C(=O)N[C@H](C#N)C[C@@H]4C(=O)NC[C@@H]4CCCC[C@H](NS(=O)(=O)c4ccc(F)cc4F)C(=O)N3C[C@@H]21 [Example 157]	< 100
CC1(C)[C@@H]2[C@H]3C(=O)N[C@H](C#N)C[C@@H]4C(=O)NC[C@@H]4CCCC[C@H](NS(=O)(=O)C(F)(F)F)C(=O)N3C[C@@H]21 [Example 158]	< 100
CC1(C)[C@@H]2[C@H]3C(=O)N[C@H](C#N)C[C@@H]4C(=O)NC[C@@H]4CCCC[C@H](NS(=O)(=O)C4(C)CC4)C(=O)N3C[C@@H]21 [Example 159]	< 100
CC1(C)[C@@H]2[C@H]3C(=O)N[C@H](C#N)C[C@@H]4C(=O)NC[C@@H]4CCCC[C@H](NS(=O)(=O)C4CCC4)C(=O)N3C[C@@H]21 [Example 160]	< 100
